Test results from patent US20140154269A1, “TARGETED NANOVECTORS AND THEIR USE FOR TREATMENT OF BRAIN TUMORS” (The Methodist Hospital Research Institute, priority 2011, published 2014).

How the values were obtained:
[1] = tested on: immortalized human glioblastoma cell cultures; details: cited from earlier work
[2] = tested on: primary GBM cell cultures; assay: Cell viability measurements (ddTUNEL, Dead Green, Hoechst staining) in primary GBM cultures; details: 24 h; PEG-HCCs 2.6 nM, GFAPAB 3.9 nM, SN-38 2 μM
Protocol: Total, viable, and dead glioma cell numbers in confluent primary GBM cell cultures were measured using ddTUNEL (a quantitative assay for 3′ OH DNA ends), Dead Green, and Hoechst stains. Cells were treated with GFAPAB/SN-38/PEG-HCCs or saline for 24 h.
Primary human glioblastoma or astrocytoma cells were prepared from tumors within 10 min of their excision. The tumors were broken up using a pipette and then grown in DMEM, 20% FBS, GlutaMax-I, sodium pyruvate and Pen/Strep, for 2 weeks. After this time, and in all presented data, the same media was used, except that sodium pyruvate was omitted. […] GBM and NHA were grown to confluency in the appropriate media on Costar 96-well growth plates (Corning, N.Y.C, NY, USA). […] Cells were grown for 24 h in the presence or absence of all effectors, in a total volume of 250 μL.
The biotinylated ddUTP and biotinylated blunt ended oligonucleotide probe was visualized using Texas Red labeled avidin. […]
Cells were counted at 4× magnification using a Nikon Eclipse TE2000-E fluorescent microscope equipped with a CoolSnap ES digital camera system (Roper Scientific) containing an CCD-1300-Y/HS 1392×1040 imaging array cooled by a Peltier device. Images were recorded using Nikon NIS-Elements software as JEP2000 files.

[3] = cited from earlier work

Structure (SMILES)	LD50 range reported by others [1] [µM]	toxicity towards GBM cells (average living cells from ddTUNEL, Dead Green, Hoechst) [2]	Log P [3]
CCc1c2c(nc3ccc(O)cc13)-c1cc3c(c(=O)n1C2)COC(=O)[C@]3(O)CC [SN-38]	5 to 10	not toxic	1.87
CC[C@]1(O)C[C@@H]2CN(CCc3c([nH]c4ccccc34)[C@@](C(=O)OC)(c3cc4c(cc3OC)N(C)[C@H]3[C@@](O)(C(=O)OC)[C@H](OC(C)=O)[C@]5(CC)C=CCN6CC[C@]43[C@@H]65)C2)C1 [Vin, Vinblastine]	–	–	4.8
